# Reference: the supplement of paper PMC10307832
# What was measured:
# Test in all cases: relative viability (nuclei count vs DMSO), 5 days (fraction); higher = more cells survive
# Seliciclib + Pictilisib = compound: CC[C@H](CO)Nc1nc(NCc2ccccc2)c2ncn(C(C)C)c2n1 [Seliciclib] + CS(=O)(=O)N1CCN(Cc2cc3nc(-c4cccc5[nH]ncc45)nc(N4CCOCC4)c3s2)CC1 [Pictilisib] (partner 1 µM)
# Method in brief: (§1)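 Lung cancer cell lines in 1536-well plates got either a single drug or a fixed anchor-drug dose together with five library-drug doses (not always all listed) in √10 steps, by pin tool, on the day after seeding. Nuclei were counted after 5 days, and relative viability is the treated-to-vehicle ratio of nuclei counts. Values are medians of duplicate plates.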
# Seliciclib + Navitoclax = compound: CC[C@H](CO)Nc1nc(NCc2ccccc2)c2ncn(C(C)C)c2n1 [Seliciclib] + CC1(C)CCC(c2ccc(Cl)cc2)=C(CN2CCN(c3ccc(C(=O)NS(=O)(=O)c4ccc(N[C@H](CCN5CCOCC5)CSc5ccccc5)c(S(=O)(=O)C(F)(F)F)c4)cc3)CC2)C1 [Navitoclax] (partner 0.5 µM)
# Method in brief: as §1
# Seliciclib + Bortezomib = compound: CC[C@H](CO)Nc1nc(NCc2ccccc2)c2ncn(C(C)C)c2n1 [Seliciclib] + CC(C)C[C@H](NC(=O)[C@H](Cc1ccccc1)NC(=O)c1cnccn1)B(O)O [Bortezomib] (partner 0.002 µM)
# Method in brief: as §1
# Seliciclib + Linsitinib = compound: CC[C@H](CO)Nc1nc(NCc2ccccc2)c2ncn(C(C)C)c2n1 [Seliciclib] + C[C@]1(O)C[C@@H](c2nc(-c3ccc4ccc(-c5ccccc5)nc4c3)c3c(N)nccn32)C1 [Linsitinib] (partner 1 µM)
# Method in brief: as §1
# Seliciclib + Olaparib = compound: CC[C@H](CO)Nc1nc(NCc2ccccc2)c2ncn(C(C)C)c2n1 [Seliciclib] + O=C(c1cc(Cc2n[nH]c(=O)c3ccccc23)ccc1F)N1CCN(C(=O)C2CC2)CC1 [Olaparib] (partner 8 µM)
# Method in brief: as §1
# Seliciclib + Crizotinib = compound: CC[C@H](CO)Nc1nc(NCc2ccccc2)c2ncn(C(C)C)c2n1 [Seliciclib] + C[C@@H](Oc1cc(-c2cnn(C3CCNCC3)c2)cnc1N)c1c(Cl)ccc(F)c1Cl [Crizotinib] (partner 1 µM)
# Method in brief: as §1
# Seliciclib + Foretinib = compound: CC[C@H](CO)Nc1nc(NCc2ccccc2)c2ncn(C(C)C)c2n1 [Seliciclib] + COc1cc2c(Oc3ccc(NC(=O)C4(C(=O)Nc5ccc(F)cc5)CC4)cc3F)ccnc2cc1OCCCN1CCOCC1 [Foretinib] (partner 0.25 µM)
# Method in brief: as §1
# Seliciclib + Alpelisib = compound: CC[C@H](CO)Nc1nc(NCc2ccccc2)c2ncn(C(C)C)c2n1 [Seliciclib] + Cc1nc(NC(=O)N2CCC[C@H]2C(N)=O)sc1-c1ccnc(C(C)(C)C(F)(F)F)c1 [Alpelisib] (partner 2 µM)
# Method in brief: as §1
# Seliciclib + Lapatinib = compound: CC[C@H](CO)Nc1nc(NCc2ccccc2)c2ncn(C(C)C)c2n1 [Seliciclib] + CS(=O)(=O)CCNCc1ccc(-c2ccc3ncnc(Nc4ccc(OCc5cccc(F)c5)c(Cl)c4)c3c2)o1 [Lapatinib] (partner 2 µM)
# Method in brief: as §1
# Seliciclib = compound: CC[C@H](CO)Nc1nc(NCc2ccccc2)c2ncn(C(C)C)c2n1 [Seliciclib]
# Method in brief: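 Vehicle-anchored 1536-well plates of lung cancer cell lines, held overnight at 37 °C, were pinned with five library-drug doses (not always all listed) spaced by √10. No medium change followed over the next 5 days, after which the cells were fixed, permeabilised and Hoechst-stained together and imaged at 4×. Nuclei were counted with MetaXpress, and viability is treated-well nuclei over vehicle-well nuclei, taken as a median across plates. Plates passed with control CV below 25% and at least one doubling.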
# Seliciclib + Phenformin = compound: CC[C@H](CO)Nc1nc(NCc2ccccc2)c2ncn(C(C)C)c2n1 [Seliciclib] + N=C(N)NC(=N)NCCc1ccccc1 [Phenformin] (partner 250 µM)
# Method in brief: as §1
# Seliciclib + Dasatinib = compound: CC[C@H](CO)Nc1nc(NCc2ccccc2)c2ncn(C(C)C)c2n1 [Seliciclib] + Cc1nc(Nc2ncc(C(=O)Nc3c(C)cccc3Cl)s2)cc(N2CCN(CCO)CC2)n1 [Dasatinib] (partner 0.075 µM)
# Method in brief: as §1
# Seliciclib + Tozasertib = compound: CC[C@H](CO)Nc1nc(NCc2ccccc2)c2ncn(C(C)C)c2n1 [Seliciclib] + Cc1cc(Nc2cc(N3CCN(C)CC3)nc(Sc3ccc(NC(=O)C4CC4)cc3)n2)n[nH]1 [Tozasertib] (partner 0.1 µM)
# Method in brief: as §1
# Seliciclib + OSI-027 = compound: CC[C@H](CO)Nc1nc(NCc2ccccc2)c2ncn(C(C)C)c2n1 [Seliciclib] + COc1cccc2cc(-c3nc([C@H]4CC[C@H](C(=O)O)CC4)n4ncnc(N)c34)[nH]c12 [OSI-027] (partner 0.5 µM)
# Method in brief: as §1
# Seliciclib + Luminespib = compound: CC[C@H](CO)Nc1nc(NCc2ccccc2)c2ncn(C(C)C)c2n1 [Seliciclib] + CCNC(=O)c1noc(-c2cc(C(C)C)c(O)cc2O)c1-c1ccc(CN2CCOCC2)cc1 [Luminespib] (partner 0.01 µM)
# Method in brief: as §1
cell line,measurement,setting,value
EBC-1,relative viability,Seliciclib + Pictilisib; first compound 0.08 µM,0.449
same,relative viability,Seliciclib + Pictilisib; first compound 0.253 µM,0.407
same,relative viability,Seliciclib + Pictilisib; first compound 0.8 µM,0.387
same,relative viability,Seliciclib + Pictilisib; first compound 2.53 µM,0.354
same,relative viability,Seliciclib + Pictilisib; first compound 8 µM,0.343
same,relative viability,Seliciclib + Navitoclax; first compound 0.08 µM,0.447
same,relative viability,Seliciclib + Navitoclax; first compound 0.253 µM,0.417
same,relative viability,Seliciclib + Navitoclax; first compound 0.8 µM,0.402
same,relative viability,Seliciclib + Navitoclax; first compound 2.53 µM,0.333
same,relative viability,Seliciclib + Navitoclax; first compound 8 µM,0.231
same,relative viability,Seliciclib + Bortezomib; first compound 0.08 µM,0.554
same,relative viability,Seliciclib + Bortezomib; first compound 0.253 µM,0.553
same,relative viability,Seliciclib + Bortezomib; first compound 0.8 µM,0.623
same,relative viability,Seliciclib + Bortezomib; first compound 2.53 µM,0.466
same,relative viability,Seliciclib + Bortezomib; first compound 8 µM,0.379
same,relative viability,Seliciclib + Linsitinib; first compound 0.08 µM,0.911
same,relative viability,Seliciclib + Linsitinib; first compound 0.253 µM,0.836
same,relative viability,Seliciclib + Linsitinib; first compound 0.8 µM,0.942
same,relative viability,Seliciclib + Linsitinib; first compound 2.53 µM,0.88
same,relative viability,Seliciclib + Linsitinib; first compound 8 µM,0.794
same,relative viability,Seliciclib + Olaparib; first compound 0.08 µM,0.712
same,relative viability,Seliciclib + Olaparib; first compound 0.253 µM,0.651
same,relative viability,Seliciclib + Olaparib; first compound 0.8 µM,0.734
same,relative viability,Seliciclib + Olaparib; first compound 2.53 µM,0.665
same,relative viability,Seliciclib + Olaparib; first compound 8 µM,0.461
same,relative viability,Seliciclib + Crizotinib; first compound 0.08 µM,0.199
same,relative viability,Seliciclib + Crizotinib; first compound 0.253 µM,0.226
same,relative viability,Seliciclib + Crizotinib; first compound 0.8 µM,0.199
same,relative viability,Seliciclib + Crizotinib; first compound 2.53 µM,0.201
same,relative viability,Seliciclib + Crizotinib; first compound 8 µM,0.213
same,relative viability,Seliciclib + Foretinib; first compound 0.08 µM,0.124
same,relative viability,Seliciclib + Foretinib; first compound 0.253 µM,0.103
same,relative viability,Seliciclib + Foretinib; first compound 0.8 µM,0.105
same,relative viability,Seliciclib + Foretinib; first compound 2.53 µM,0.125
same,relative viability,Seliciclib + Foretinib; first compound 8 µM,0.108
same,relative viability,Seliciclib + Alpelisib; first compound 0.08 µM,0.901
same,relative viability,Seliciclib + Alpelisib; first compound 0.253 µM,0.88
same,relative viability,Seliciclib + Alpelisib; first compound 0.8 µM,0.895
same,relative viability,Seliciclib + Alpelisib; first compound 2.53 µM,0.828
same,relative viability,Seliciclib + Alpelisib; first compound 8 µM,0.616
same,relative viability,Seliciclib + Lapatinib; first compound 0.08 µM,0.25
same,relative viability,Seliciclib + Lapatinib; first compound 0.253 µM,0.225
same,relative viability,Seliciclib + Lapatinib; first compound 0.8 µM,0.251
same,relative viability,Seliciclib + Lapatinib; first compound 2.53 µM,0.23
same,relative viability,Seliciclib + Lapatinib; first compound 8 µM,0.227
same,relative viability,Seliciclib; 0.08 µM,0.945
same,relative viability,Seliciclib; 0.253 µM,0.84
same,relative viability,Seliciclib; 0.8 µM,1.06
same,relative viability,Seliciclib; 2.53 µM,0.985
same,relative viability,Seliciclib; 8 µM,0.663
NCI-H1623,relative viability,Seliciclib + Phenformin; first compound 0.08 µM,0.609
same,relative viability,Seliciclib + Phenformin; first compound 0.253 µM,0.545
same,relative viability,Seliciclib + Phenformin; first compound 0.8 µM,0.502
same,relative viability,Seliciclib + Phenformin; first compound 2.53 µM,0.507
same,relative viability,Seliciclib + Phenformin; first compound 8 µM,0.538
same,relative viability,Seliciclib + Dasatinib; first compound 0.08 µM,0.562
same,relative viability,Seliciclib + Dasatinib; first compound 0.253 µM,0.479
same,relative viability,Seliciclib + Dasatinib; first compound 0.8 µM,0.498
same,relative viability,Seliciclib + Dasatinib; first compound 2.53 µM,0.53
same,relative viability,Seliciclib + Dasatinib; first compound 8 µM,0.603
same,relative viability,Seliciclib + Tozasertib; first compound 0.08 µM,0.414
same,relative viability,Seliciclib + Tozasertib; first compound 0.253 µM,0.317
same,relative viability,Seliciclib + Tozasertib; first compound 0.8 µM,0.363
same,relative viability,Seliciclib + Tozasertib; first compound 2.53 µM,0.418
same,relative viability,Seliciclib + Tozasertib; first compound 8 µM,0.414
same,relative viability,Seliciclib + Foretinib; first compound 0.08 µM,0.91
same,relative viability,Seliciclib + Foretinib; first compound 0.253 µM,0.773
same,relative viability,Seliciclib + Foretinib; first compound 0.8 µM,0.716
same,relative viability,Seliciclib + Foretinib; first compound 2.53 µM,0.754
same,relative viability,Seliciclib + Foretinib; first compound 8 µM,0.864
same,relative viability,Seliciclib + OSI-027; first compound 0.08 µM,0.425
same,relative viability,Seliciclib + OSI-027; first compound 0.253 µM,0.449
same,relative viability,Seliciclib + OSI-027; first compound 0.8 µM,0.396
same,relative viability,Seliciclib + OSI-027; first compound 2.53 µM,0.415
same,relative viability,Seliciclib + OSI-027; first compound 8 µM,0.415
same,relative viability,Seliciclib + Luminespib; first compound 0.08 µM,0.66
same,relative viability,Seliciclib + Luminespib; first compound 0.253 µM,0.367
same,relative viability,Seliciclib + Luminespib; first compound 0.8 µM,0.568
same,relative viability,Seliciclib + Luminespib; first compound 2.53 µM,0.558
same,relative viability,Seliciclib + Luminespib; first compound 8 µM,0.512
same,relative viability,Seliciclib; 0.08 µM,0.968
same,relative viability,Seliciclib; 0.253 µM,0.867
same,relative viability,Seliciclib; 0.8 µM,0.868
same,relative viability,Seliciclib; 2.53 µM,1.01
same,relative viability,Seliciclib; 8 µM,0.81
